The record followed here is patent US20250134869A1, “Pyrrolo[2,3-d]pyrimidinyl, Pyrrolo[2,3-b]pyrazinyl and Pyrrolo[2,3-d]pyridinyl Acryla-mides” (Pfizer Inc, priority 2021, published 2025).

Where two headings read alike, the source gives them in different places.

This test addresses JAK3 enzyme (Homo sapiens (Human), UniProt P52333). The experiment in a line: JAK Caliper Enzyme Assay at 4 μM or 1 mM ATP. It is filed as biochemical. As to the method:
JAK Caliper Enzyme Assay at […] or 1 mM ATP
Test article was solubilized in dimethyl sulfoxide (DMSO) to a stock concentration of 30 mM. An 11-point half log dilution series was created in DMSO with a top concentration of 600 μM. […] The compound plates were diluted 1 to 60 resulting in a top final assay compound concentration of 10 μM and a 2% DMSO concentration.
Test article and assay controls were added to a 384-well plate. Reaction mixtures contained 20 mM HEPES, pH 7.4, 10 mM magnesium chloride, 0.01% bovine serum albumin (BSA), 0.0005% Tween […] or 1 mM ATP and […] peptide substrate. […] The assays were initiated by the addition 1 nM JAK3 enzyme and were incubated at room temperature 75 minutes for JAK3. Enzyme concentrations and incubation times were optimized for each new enzyme preps and were modified slightly over time to ensure 20%-30% phosphorylation. The assays were stopped with a final concentration of 10 mM EDTA, 0.1% Coating Reagent and 100 mM HEPES, pH=7.4. The assay plates were placed on a Caliper Life Science Lab Chip 3000 (LC3000) instrument, and each well was sampled using appropriate separation conditions to measure the unphosphorylated and phosphorylated peptide.

[1] abbreviates: read-out: JAK3 (4 μM ATP) IC50, 4 μM ATP.
The mark [2] stands for this setting: read-out: JAK3 (1 mM ATP) IC50, 1 mM ATP.

Chain of JAK3 enzyme (P52333 whole entry, species assumed): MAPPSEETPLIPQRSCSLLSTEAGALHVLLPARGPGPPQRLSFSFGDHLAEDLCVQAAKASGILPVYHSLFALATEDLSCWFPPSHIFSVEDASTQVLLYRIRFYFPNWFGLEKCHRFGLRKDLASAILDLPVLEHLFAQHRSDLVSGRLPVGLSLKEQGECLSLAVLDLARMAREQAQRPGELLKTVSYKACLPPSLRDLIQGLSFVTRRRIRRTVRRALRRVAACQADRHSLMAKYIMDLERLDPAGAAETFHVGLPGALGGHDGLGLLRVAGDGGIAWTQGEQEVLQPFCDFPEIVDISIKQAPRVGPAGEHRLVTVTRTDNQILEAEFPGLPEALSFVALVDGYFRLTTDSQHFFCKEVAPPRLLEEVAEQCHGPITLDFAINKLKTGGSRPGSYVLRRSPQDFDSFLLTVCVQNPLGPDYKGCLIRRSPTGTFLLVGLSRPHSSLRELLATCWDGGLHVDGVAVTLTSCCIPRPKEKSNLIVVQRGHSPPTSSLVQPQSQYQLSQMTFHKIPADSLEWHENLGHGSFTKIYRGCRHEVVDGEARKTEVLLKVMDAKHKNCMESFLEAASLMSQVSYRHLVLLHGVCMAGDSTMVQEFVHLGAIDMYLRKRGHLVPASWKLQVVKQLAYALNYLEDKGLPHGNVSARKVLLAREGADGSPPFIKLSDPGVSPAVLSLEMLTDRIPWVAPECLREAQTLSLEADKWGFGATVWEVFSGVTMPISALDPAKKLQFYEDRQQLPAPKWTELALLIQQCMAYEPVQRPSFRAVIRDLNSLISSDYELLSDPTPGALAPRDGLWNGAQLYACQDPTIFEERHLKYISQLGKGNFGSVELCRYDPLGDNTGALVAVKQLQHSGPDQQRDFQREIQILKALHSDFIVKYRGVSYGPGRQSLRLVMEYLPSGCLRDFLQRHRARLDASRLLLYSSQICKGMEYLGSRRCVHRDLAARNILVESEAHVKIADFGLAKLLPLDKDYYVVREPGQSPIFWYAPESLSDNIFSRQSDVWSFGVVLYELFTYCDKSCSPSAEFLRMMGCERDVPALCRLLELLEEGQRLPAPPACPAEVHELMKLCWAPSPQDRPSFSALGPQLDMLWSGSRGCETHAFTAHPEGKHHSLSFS

A word on the IC50: it is the concentration needed to halve the response being measured. Take `C=CC(=O)N1CC[C@H](Nc2cnc3[nH]cc(C(=O)NC(C)C)c3n2)[C@H](OC)C1` [Example 317, 2-{[(3R,4S)-1-acryloyl-3-methoxypiperidin-4-yl]amino}-N-(propan-2-yl)-5H-pyrrolo[2,3-b]pyrazine-7-carboxamide]: the IC50 reads like this: under setting [1], 0.5 nM; under setting [2], 44.6 nM.
The matching figures for `C=CC(=O)N1CCC(Nc2cnc3[nH]cc(C(=O)NC4CC(F)(F)C4)c3n2)CC1` [Example 245, 2-[(1-acryloylpiperidin-4-yl)amino]-N-(3,3-difluorocyclobutyl)-5H-pyrrolo[2,3-b]pyrazine-7-carboxamide]: 0.2 nM and 17.9 nM.
The matching figures for `C=CC(=O)N1CC[C@@H](Nc2cnc3[nH]cc(C(=O)NC(C)C)c3n2)[C@H](OC)C1` [Example 305, 2-{[(3R,4R)-1-acryloyl-3-methoxypiperidin-4-yl]amino}-N-(propan-2-yl)-5H-pyrrolo[2,3-b]pyrazine-7-carboxamide]: 0.8 nM and 65 nM.
For the molecule `C=CC(=O)N1CCC(Oc2cnc3[nH]cc(-c4cncnc4)c3n2)CC1` [Example 215, 1-(4-{[7-(pyrimidin-5-yl)-5H-pyrrolo[2,3-b]pyrazin-2-yl]oxy}piperidin-1-yl)prop-2-en-1-one], the half-inhibitory concentration (IC50) is, setting by setting: under setting [1], 2.9 nM; under setting [2], 386 nM.
With `C=CC(=O)N1CCC(Oc2cnc3[nH]cc(-c4cnc(OC)nc4)c3n2)CC1` [Example 219, 1-(4-{[7-(2-methoxypyrimidin-5-yl)-5H-pyrrolo[2,3-b]pyrazin-2-yl]oxy}piperidin-1-yl)prop-2-en-1-one], the IC50 under setting [1] amounted to 1.7 nM and the IC50 under setting [2] is 153 nM.
The matching figures for `C=CC(=O)N1CCC(Nc2cnc3[nH]cc(C(=O)NC[C@H](C)CC(F)(F)F)c3n2)CC1` [Example 241, 2-[(1-acryloylpiperidin-4-yl)amino]-N-[(2R)-4,4,4-trifluoro-2-methylbutyl]-5H-pyrrolo[2,3-b]pyrazine-7-carboxamide]: 0.2 nM and 7.3 nM.
The matching figures for `C=CC(=O)N1CCC(Nc2cnc3[nH]cc(C(=O)NCCCC(F)(F)F)c3n2)CC1` [Example 240, 2-[(1-acryloylpiperidin-4-yl)amino]-N-(4,4,4-trifluorobutyl)-5H-pyrrolo[2,3-b]pyrazine-7-carboxamide]: 0.1 nM and 9.1 nM.
The matching figures for `C=CC(=O)N1CCC(Nc2cnc3[nH]cc(-c4ccc(F)nc4)c3n2)CC1` [Example 207, 1-(4-{[7-(6-fluoropyridin-3-yl)-5H-pyrrolo[2,3-b]pyrazin-2-yl]amino}piperidin-1-yl)prop-2-en-1-one]: 0.3 nM and 28.9 nM.
Consider `C=CC(=O)N1CCC(Nc2cnc3[nH]cc(C(=O)NC4CCCCC4)c3n2)CC1` [Example 278, 2-[(1-acryloylpiperidin-4-yl)amino]-N-cyclohexyl-5H-pyrrolo[2,3-b]pyrazine-7-carboxamide], for which the IC50 under setting [1] came to 0.2 nM and the IC50 under setting [2] came to 6.3 nM.
Turning to `C=CC(=O)N1CCCC(Nc2ncnc3[nH]ccc23)C1` (centres unmarked) [Example 103, 1-[3-(7H-pyrrolo[2,3-d]pyrimidin-4-ylamino)piperidin-1-yl]prop-2-en-1-one], the IC50 under setting [1] was 4.7 nM.
As for `C=CC(=O)N1CCN(c2cnc3[nH]cc(C(=O)NC(C)C)c3n2)[C@H](CC)C1` [Example 321, 2-[(2R)-4-acryloyl-2-ethylpiperazin-1-yl]-N-(propan-2-yl)-5H-pyrrolo[2,3-b]pyrazine-7-carboxamide], the IC50 turned out to be 0.9 nM under setting [1] and 144 nM under setting [2].
The matching figures for `C=CC(=O)N1CCC(Nc2cnc3[nH]cc(C(=O)NCC(C)CC(F)(F)F)c3n2)CC1` (centres unmarked) [Example 253, 2-[(1-acryloylpiperidin-4-yl)amino]-N-(4,4,4-trifluoro-2-methylbutyl)-5H-pyrrolo[2,3-b]pyrazine-7-carboxamide]: 0.2 nM and 6.9 nM.
In the case of `C/C=C/C(=O)N1CCC[C@@H](N(C)c2ncnc3[nH]cc(CCOC)c23)C1` [Example 135, (2E)-1-[(3R)-3-{[5-(2-Methoxyethyl)-7H-pyrrolo[2,3-d]pyrimidin-4-yl](methyl)amino}-piperidin-1-yl]but-2-en-1-one], the IC50 under setting [1] was over 10000 nM.
With `C=CC(=O)N1CC2(C1)CN(c1cnc3[nH]cc(C(=O)NC(C)C)c3n1)C2` [Example 310, 2-(6-acryloyl-2,6-diazaspiro[3.3]hept-2-yl)-N-(propan-2-yl)-5H-pyrrolo[2,3-b]pyrazine-7-carboxamide], the 50% inhibitory concentration (IC50) is 117 nM under setting [1] and over 10000 nM under setting [2].
The matching figures for `C=CC(=O)N1CCC[C@@H](Nc2ncnc3[nH]cc(CC#N)c23)C1` [Example 20, (R)-2-(4-((1-Acryloylpiperidin-3-yl)amino)-7H-pyrrolo[2,3-d]pyrimidin-5-yl)acetonitrile]: 1 nM and 76.5 nM.
The matching figures for `C=C(F)C(=O)N1CCC[C@@H](Nc2ncnc3[nH]ccc23)C1` [Example 91, 2-fluoro-1-[(3R)-3-(7H-pyrrolo[2,3-d]pyrimidin-4-ylamino)piperidin-1-yl]prop-2-en-1-one]: 56.5 nM and 4650 nM.
The matching figures for `C=CC(=O)N1CCC(Nc2cnc3[nH]cc(C(=O)NCC(C)C)c3n2)CC1` [Example 272, 2-[(1-acryloylpiperidin-4-yl)amino]-N-(2-methylpropyl)-5H-pyrrolo[2,3-b]pyrazine-7-carboxamide]: 0.2 nM and 8.8 nM.
For `C=CC(=O)N1CCC(Nc2cnc3[nH]cc(C(=O)NCCCC#N)c3n2)CC1` [Example 242, 2-[(1-acryloylpiperidin-4-yl)amino]-N-(3-cyanopropyl)-5H-pyrrolo[2,3-b]pyrazine-7-carboxamide], the IC50 reads like this: under setting [1], 0.1 nM; under setting [2], 10.7 nM.
The matching figures for `C=CC(=O)N1CCC(Nc2cnc3[nH]cc(C(=O)NC4CCC4)c3n2)CC1` [Example 280, 2-[(1-acryloylpiperidin-4-yl)amino]-N-cyclobutyl-5H-pyrrolo[2,3-b]pyrazine-7-carboxamide]: 0.2 nM and 4 nM.
Regarding `C/C=C/C(=O)N1CCC[C@@H](Nc2ncnc3[nH]cc(C(=O)N4CCCC4)c23)C1` [Example 147, (2E)-1-[(3R)-3-{[5-(pyrrolidin-1-ylcarbonyl)-7H-pyrrolo[2,3-d]pyrimidin-4-yl]amino}pipendin-1-yl]but-2-en-1-one], under setting [1], the IC50 is over 10000 nM.
On to `C=CC(=O)N1CCC(Oc2cnc3[nH]cc(-c4cccc(C(=O)NC)c4)c3n2)CC1` [Example 227, 3-{2-[(1-acryloylpiperidin-4-yl)oxy]-5H-pyrrolo[2,3-b]pyrazin-7-yl}-N-methylbenzamide], for which the IC50 by setting is: under setting [1], 0.9 nM; under setting [2], 71.8 nM.
The matching figures for `C=CC(=O)N1C[C@H](Nc2ncnc3[nH]ccc23)C[C@@H](OC)C1` [Example 77, 1-[(3R,5R)-3-Methoxy-5-(7H-pyrrolo[2,3-d]pyrimidin-4-ylamino)piperidin-1-yl]prop-2-en-1-one]: 15.5 nM and 2070 nM.
The matching figures for `COCCc1c[nH]c2ncnc(N[C@@H]3CCCN(C(=O)/C=C/CN(C)C)C3)c12` [Example 108, (2E)-4-(dimethylamino)-1-[(3R)-3-{[5-(2-methoxyethyl)-7H-pyrrolo[2,3-d]pyrimidin-4-yl]amino}pipendin-1-yl]but-2-en-1-one]: 528 nM and over 10000 nM.
The matching figures for `C=CC(=O)N1CCC(Nc2cnc3[nH]cc(C(=O)N[C@H](C)CC)c3n2)CC1` [Example 289, 2-[(1-acryloylpiperidin-4-yl)amino]-N-[(2R)-butan-2-yl]-5H-pyrrolo[2,3-b]pyrazine-7-carboxamide]: 0.3 nM and 7.1 nM.
In the case of `C=CC(=O)N1CCC[C@@H](Nc2ncnc3[nH]cc(C(=O)N4CCCC4)c23)C1` [Example 146, 1-[(3R)-3-{[5-(pyrrolidin-1-ylcarbonyl)-7H-pyrrolo[2,3-d]pyrimidin-4-yl]amino}pipendin-1-yl]prop-2-en-1-one], the IC50 under setting [1] was 957 nM.
Turning to `C=CC(=O)N1CCC(Nc2cnc3[nH]cc(C(=O)N[C@H](C)CCC)c3n2)CC1` [Example 274, 2-[(1-acryloylpiperidin-4-yl)amino]-N-[(2R)-pentan-2-yl]-5H-pyrrolo[2,3-b]pyrazine-7-carboxamide], the IC50 came to 0.2 nM under setting [1] and 8.2 nM under setting [2].
With `C/C=C/C(=O)N1CCC[C@@H](Nc2ncnc3[nH]cc(C(=O)NCCOC)c23)C1` [Example 149, 4-({(3R)-1-[(2E)-but-2-enoyl]piperidin-3-yl}amino)-N-(2-methoxyethyl)-7H-pyrrolo[2,3-d]pyrimidine-5-carboxamide], the IC50 under setting [1] is over 10000 nM.
For `C=CC(=O)N1CCC(Oc2cnc3[nH]cc(-c4c(C)noc4C)c3n2)CC1` [Example 224, 1-(4-{[7-(3,5-dimethyl-1,2-oxazol-4-yl)-5H-pyrrolo[2,3-b]pyrazin-2-yl]oxy}piperidin-1-yl)prop-2-en-1-one], the IC50 by setting is: under setting [1], 17.6 nM; under setting [2], 1540 nM.
The matching figures for `C=CC(=O)N1[C@@H]2CC[C@H]1CN(c1cnc3[nH]cc(C(=O)NC(C)C)c3n1)C2` [Example 301, 2-[(1R,5S)-8-acryloyl-3,8-diazabicyclo[3.2.1]oct-3-yl]-N-(propan-2-yl)-5H-pyrrolo[2,3-b]pyrazine-7-carboxamide]: 0.6 nM and 89 nM.
